From patent US5128343A, “Derivatives of pyrimidinyl-piperazinyl-alkyl azoles with anxiolytic and/or tranquilizing activity” (Laboratorios del Dr. Esteve, priority 1989, dated 1992)
Counter-ions that a name gives are not always drawn. Like-named read-outs stand apart in the source and are kept apart here.

Test system: male Wistar rats
Experiment: conditioned avoidance response test (anxiolytic and tranquilizing action)
Format: in vivo
Settings: suppression of conditioned avoidance response, oral administration 45 minutes before study; for Activity %: dose not given
Description: In this test, male Wistar rats of 200 grams weight are used, trained to jump over a barrier in an avoidance and exit cage (shuttle box) (Letica, reference L1 910 and L1 2700) in the 30 seconds following their introduction into the cage.
The products with anxiolytic or tranquilizing activity suppress the conditioned avoidance response.
Training: first day: 11 tests, at intervals of 3 minutes. Electro-shock on the paws, at 30 seconds (5 mA, 0.1 s, 10 s).
Second and third days: 2 tests per day, solely with selected rats [sum of the points of the first day (excepting the first test)>14].
Day of test: groups formed of selected rats. Oral administration of the product or of the vehicle 45 minutes before starting the study.

[1] = Rattus norvegicus, po, 0.75 h, read-out: ED50

SMILES	ED50 [1] [mg/kg]	Activity % [%]	ED50 (dihydrochloride, 45 min) [mg/kg]	Activity % (dihydrochloride) [%]	ED50 (45 min) [mg/kg]
Brc1cnn(CCCCN2CCN(c3ncccn3)CC2)c1 [Example 11]	28.9	95	–	–	–
c1cnc(N2CCN(CCCCn3ncc4c3CCCC4)CC2)nc1 [Example 26]	19.5	97	–	–	–
Cc1nn(CCCCN2CCN(c3ncccn3)CC2)c(C)c1S(=O)(=O)N(C)C [Example 42]	82	45	–	–	–
c1cnc(N2CCN(CCCCn3cc4c(n3)CCCC4)CC2)nc1 [Example 27]	18.9	98	–	–	–
c1ccc(-c2cnn(CCCCN3CCN(c4ncccn4)CC3)c2)cc1 [Example 35]	27.4	100	–	–	–
O=C1c2ccccc2S(=O)(=O)N1CCCCN1CCN(c2ncccn2)CC1 [Ipsapirone, reference compound]	26.1	98	–	–	–
Clc1ccc(-c2cnn(CCCCN3CCN(c4ncccn4)CC3)c2)cc1 [Example 33]	15.7	90	–	–	–
CCCS(=O)(=O)Nc1cnn(CCCCN2CCN(c3ncccn3)CC2)c1 [Example 40]	73	57	–	–	–
CCS(=O)(=O)Nc1cnn(CCCCN2CCN(c3ncccn3)CC2)c1 [Example 41]	29.3	77	–	–	–
CS(=O)(=O)Nc1cnn(CCCCN2CCN(c3ncccn3)CC2)c1 [Example 16, 1H-pyrazole-4-methylsulfonamido-1-(4-(4-(2-pyrimidinyl)-1-piperazinyl)-butyl)]	40	64	–	–	–
Cc1cncn1CCCCN1CCN(c2ncccn2)CC1 [Example 48]	75	52	–	–	–
O=C(Nc1cnn(CCCCN2CCN(c3ncccn3)CC2)c1)c1ccccc1 [Example 17]	65.9	62	–	–	–
Cc1cn(CCCCN2CCN(c3ncccn3)CC2)cn1 [Example 47]	80	50	–	–	–
Cc1cc(-c2ccccc2)n(CCCCN2CCN(c3ncccn3)CC2)n1 [Example 10]	–	24	–	–	–
Clc1cnn(CCCCN2CCN(c3ncccn3)CC2)c1 [Example 50, 1H-pyrazole-4-chloro-1-(4-(4-(2-pyrimidinyl)-1-piperazinyl)-butyldihydrochloride]	–	–	4.9	99	–
Cc1ccnn1CCCCN1CCN(c2ncccn2)CC1 [Example 22]	–	47	–	–	–
Clc1cnn(CCCCN2CCN(c3ncccn3)CC2)c1 [Example 49]	–	100	–	–	14.5
O=C1CC2(CCCC2)CC(=O)N1CCCCN1CCN(c2ncccn2)CC1 [Buspirone, reference compound]	17.2	99	–	–	–
Clc1ncn(CCCCN2CCN(c3ncccn3)CC2)c1Cl [Example 46]	–	99	–	–	–
Cc1nn(CCCCN2CCN(c3ncccn3)CC2)c(C)c1Br [Example 6]	80	51	–	–	–
CC(=O)Nc1cnn(CCCCN2CCN(c3ncccn3)CC2)c1 [Example 18]	28.8	89	–	–	–
Fc1cnn(CCCCN2CCN(c3ncccn3)CC2)c1 [Example 13]	–	85	–	–	–
COc1ccc(-c2cnn(CCCCN3CCN(c4ncccn4)CC3)c2)cc1 [Example 32]	22.5	60	–	–	–
Cc1c(Br)cnn1CCCCN1CCN(c2ncccn2)CC1 [Example 24, 1H-pyrazole-4-bromo-5-methyl-1-(4-(4-(2-pyrimidinyl)-1-piperazinyl)-butyl)]	60.6	53	–	–	–
Cc1nn(CCCCN2CCN(c3ncccn3)CC2)cc1-c1ccccc1 [Example 29]	31.9	78	–	–	–

SMILES	ED50 [1] [mg/kg]	Activity % [%]	ED50 (dihydrochloride, 45 min) [mg/kg]	Activity % (dihydrochloride) [%]	ED50 (45 min) [mg/kg]
CCC(C)Nc1cnn(CCCCN2CCN(c3ncccn3)CC2)c1 (stereo not shown) [Example 19]	29.7	80	–	–	–
Brc1cnc(N2CCN(CCCCn3cc(Br)cn3)CC2)nc1 [Example 20]	76.8	59	–	–	–
O=S(=O)(O)c1cnn(CCCCN2CCN(c3ncccn3)CC2)c1 [Example 44]	–	15	–	–	–
c1cnc(N2CCN(CCCCn3cccn3)CC2)nc1 [Example 1, 1H-pyrazole-1-(4-(4-(2-pyrimidinyl)-1-piperazinyl)-butyl)]	26.2	98	–	–	–
Clc1cnn(CCCCN2CCN(c3ncc(Br)cn3)CC2)c1 [Example 21]	51.7	48	–	–	–
Fc1cn(CCCCN2CCN(c3ncccn3)CC2)nc1Cl [Example 30]	53.9	85	–	–	–
Cc1c(-c2ccccc2)cnn1CCCCN1CCN(c2ncccn2)CC1 [Example 28]	32.2	75	–	–	–
c1cnc(N2CCN(CCCCn3cc(-n4cccc4)cn3)CC2)nc1 [Example 34]	5	100	–	–	–
Nc1cnn(CCCCN2CCN(c3ncccn3)CC2)c1 [Example 15, 1H-pyrazole-4-amino-1-(4-(4-(2-pyrimidinyl)-1-piperazinyl)-butyl)]	27.7	79	–	–	–
Cc1cnn(CCCCN2CCN(c3ncccn3)CC2)c1 [Example 4]	< 20	98	–	–	–
c1cnc(N2CCN(CCCCn3ccnc3)CC2)nc1 [Example 45]	93	35	–	–	–
Cc1cc(C)n(CCCCN2CCN(c3ncccn3)CC2)n1 [Example 2]	80	50	–	–	–
c1ccc(-c2cc(-c3ccccc3)n(CCCCN3CCN(c4ncccn4)CC3)n2)cc1 [Example 36]	122	31	–	–	–
CCCCS(=O)(=O)Nc1cnn(CCCCN2CCN(c3ncccn3)CC2)c1 [Example 39]	73	57	–	–	–
Cc1nn(CCCCN2CCN(c3ncccn3)CC2)cc1Br [Example 25]	58.3	59	–	–	–
CN(C)S(=O)(=O)c1cnn(CCCCN2CCN(c3ncccn3)CC2)c1 [Example 43]	72	63	–	–	–
Cc1nn(CCCCN2CCN(c3ncccn3)CC2)c(C)c1[N+](=O)[O-] [Example 3]	58.3	61	–	–	–
CCOC(=O)c1cnn(CCCCN2CCN(c3ncccn3)CC2)c1 [Example 9]	–	14	–	–	–
O=S(=O)(Nc1cnn(CCCCN2CCN(c3ncccn3)CC2)c1)c1ccccc1 [Example 37]	85	46	–	–	–
c1cnc(N2CCN(CCCCn3ncc4ccccc43)CC2)nc1 [Example 5]	80	45	–	–	–
Cc1ccc(S(=O)(=O)Nc2cnn(CCCCN3CCN(c4ncccn4)CC3)c2)cc1 [Example 38]	102	37	–	–	–
O=[N+]([O-])c1cnn(CCCCN2CCN(c3ncccn3)CC2)c1 [Example 7, 1H-pyrazole-4-nitro-1-(4-(4-(2-pyrimidinyl)-1-piperazinyl)-butyl)]	6.2	98	–	–	–
Clc1cnn(CCCCN2CCN(c3ncccn3)CC2)c1 [Example 8, 1H-pyrazole-4-chloro-1-(4-(4-(2-pyrimidinyl)-1-piperazinyl)-butyl)]	–	95	–	–	17.9
N#Cc1cnn(CCCCN2CCN(c3ncccn3)CC2)c1 [Example 12]	–	100	–	–	–
